We go through one molecule from patent US20240342138A1, “MICROTUBULE TARGETING AGENTS” (BPGbio, Inc., priority 2023, published 2024).

The subject of one data set is A549 tumors. Briefly: Lung adenocarcinoma xenograft model. The data set is classed as in vivo, nude mice. Conditions: for Highest TGI (%): Day 7. How it is done:
FIG. 13A-13B show efficacy of Compound 1 in a lung adenocarcinoma xenograft model (A549). A) In vitro potency of Compound 1 in A549 cells as evaluated by ATPlite 1Step™ Perkin Elmer (performed by NTRC Oncolines). B) A549 cells (5×10^6) were implanted subcutaneously in athymic female nude mice and tumors were allowed to grow to a volume of ˜112 mm^3 followed by randomization of animals into three (3) groups (vehicle control, 75 mg/kg, 150 mg/kg Compound 1) with 12 animals per group. A Compound 1 solid dispersion was prepared prior to each dosing and administered by oral gavage two times a day (BID). Mean tumor volume of each group over time and the growth of tumor in each individual animal was graphed. For each individual animal of […] group TGI (%) was calculated based on the tumor growth inhibition of individual tumor at each given day of the study compared to the average of the group for that given day of the study. P-values were calculated using two-tailed distribution and two-sample equal variance (homoscedastic) for each group treated with Compound 1 for each given day of the study in reference to vehicle control. NS p>0.05; *p≤0.05; **p≤0.01; ***p p≤0.001; **** p≤0.0001.
Anti-tumor efficacy of Compound 1 was evaluated against three (3) different preclinical oncology mice models of colorectal cancer, prostate cancer, and lung adenocarcinoma (see Table 5 below). For this purpose, an oral formulation of Compound 1 was used.
A549 is a human lung adenocarcinoma cell line isolated from the lung tissue of their origin. […] A549 cells were implanted subcutaneously in nude mice and tumors were allowed to grow to an average volume of 112 mm^3 followed by randomization into three (3) groups consisting of vehicle control, 75 mg/kg and 150 mg/kg Compound 1 (12 animals per group). A Compound 1 solid dispersion was administered by oral gavage two times a day (BID). All animals remained in the study until Day 28 except one animal from Group 3 (Animal #29), which exited the study on Day 11 due to more than 20% body weight loss. This animal was excluded from all analysis. Data from Day 14-18 were excluded from the analysis due to inconsistencies in data collection methods.

Another data set relates to CTG-1520 PDX tumors. Briefly: CTG-1520 PDX tumor growth in nude mice. The data set is classed as in vivo. How it is done: FIG. 10A-10C show potency of Compound 1 in a patient-derived organoid model of taxane resistance. A) Overview of study design. B) CTG-1520 was implanted subcutaneously in nude mice and tumors were allowed to grow to a volume of 210 mm^3 followed by randomization of animals into three (3) groups (vehicle control, 75 mg/kg, 150 mg/kg Compound 1) with 12 animals per group. A Compound 1 solid dispersion was prepared prior to each dosing and administered by oral gavage two times a day (BID). Mean tumor volume of each group over time and the growth of tumor in each individual animal was graphed. For each individual animal of vehicle group tumor growth inhibition (TGI) % was calculated based on the tumor growth inhibition of individual tumor at each given day of the study compared to the average of the group for that given day of the study. P-values were calculated using two-tailed distribution and two-sample equal variance (homoscedastic) for each group treated with Compound 1 for each given day of the study in reference to vehicle control. ns p>0.05; *p≤0.05; **p≤0.01. C) Body weight of each individual animal was measured on days 0, 3, 6, 10, 13, and 17 and graphed using Graphpad Prism.
In a next step, the ability of Compound 1 to inhibit the growth of CTG-1520 PDX in nude mice was assessed. CTG-1520 was implanted subcutaneously in nude mice and tumors were allowed to grow to a volume of 210 mm^3 followed by randomization of animals into three (3) groups (vehicle control; 75 mg/kg, and 150 mg/kg Compound 1) with 12 animals per group (see FIG. 10A). A Compound 1 solid dispersion was administered by oral gavage two times a day (BID). All animals, except one (1) from the vehicle control group, survived through the study (17 days). One (1) animal from the vehicle control group reached the endpoint of 2000 mm^3 prior to day 17 and was eliminated from all calculations.

Another data set has as its target T1, tubulin (Sus scrofa, UniProt P02550+P02554).
T1 construct: purchased Cytoskeleton Inc. BK006P
Briefly: In vitro tubulin polymerization assay (OD based, absorbance 340 nm). The class given is biochemical, Porcine. Conditions: 10 μM and 20 nM; FIG. 1; N=3. How it is done: The protocol followed for tubulin polymerization is according to the manufacturer's protocol. The following components were diluted as follows: • A vial of lyophilized GTP was diluted in 100 μl of sterile water and made into 10 μl aliquots and stored at −80° C. • Tubulin was diluted to 10 mg/ml in buffers+GTP as recommended, flash frozen in liquid nitrogen and stored at −80° C. • Paclitaxel was diluted to 2 mM in DMSO
The half area 96-well plate provided by kit manufacturer was allowed to warm up to 37° C. for 30 mins in the Molecular Devices M5 plate reader. The Compound 1 and nocodazole were diluted in DMSO to a concentration of 2 mM, followed by dilution of these working stocks in the General Tubulin Buffer (GTB-provided in the kit) to a 10× the final well concentration and final well volume of 10 μl. Same was done with the 2 mM Paclitaxel stock. Once the plate was warmed up, the compounds were added in duplicates to the wells. […] The plate was placed at 37° C. in the plate reader for 3 minutes. […] The experimental setup was as follows: • Absorbance read: 340 nm • Temperature: 37° C. • Shake: 5 s at medium speed prior to first read. • Read: The absorbance was read every 1 min for 90 minutes (total 91 reads).
The values were normalized to the first read by designating the first read as ‘0’ subtracting the value of the first read from the following reads. […]

T1 sequence (P02550 whole entry): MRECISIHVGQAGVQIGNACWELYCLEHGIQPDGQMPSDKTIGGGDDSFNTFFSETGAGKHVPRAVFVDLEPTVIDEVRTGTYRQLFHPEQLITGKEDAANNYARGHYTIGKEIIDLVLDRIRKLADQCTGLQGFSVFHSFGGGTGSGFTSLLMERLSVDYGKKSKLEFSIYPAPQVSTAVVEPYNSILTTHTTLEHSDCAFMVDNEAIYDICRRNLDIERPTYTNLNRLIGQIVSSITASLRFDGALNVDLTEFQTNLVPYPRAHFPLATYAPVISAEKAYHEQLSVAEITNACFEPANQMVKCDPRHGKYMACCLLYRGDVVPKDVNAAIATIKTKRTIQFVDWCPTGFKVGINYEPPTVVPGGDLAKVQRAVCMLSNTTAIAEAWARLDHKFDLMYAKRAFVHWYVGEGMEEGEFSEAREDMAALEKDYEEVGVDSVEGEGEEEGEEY
T1 sequence (P02554 whole entry): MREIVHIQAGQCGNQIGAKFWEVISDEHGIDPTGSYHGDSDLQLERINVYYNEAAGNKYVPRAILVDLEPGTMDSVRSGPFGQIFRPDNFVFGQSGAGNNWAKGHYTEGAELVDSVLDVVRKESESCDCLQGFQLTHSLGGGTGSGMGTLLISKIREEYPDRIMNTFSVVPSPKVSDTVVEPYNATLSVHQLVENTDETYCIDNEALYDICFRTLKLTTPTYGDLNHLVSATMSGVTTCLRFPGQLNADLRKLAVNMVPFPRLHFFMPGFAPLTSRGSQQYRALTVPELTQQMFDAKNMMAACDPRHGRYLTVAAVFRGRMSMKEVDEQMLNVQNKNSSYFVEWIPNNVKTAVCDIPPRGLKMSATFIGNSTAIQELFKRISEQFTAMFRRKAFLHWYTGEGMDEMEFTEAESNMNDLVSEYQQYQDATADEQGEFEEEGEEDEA

Regarding `COc1ccccc1-c1nc(CNC(=O)c2ccccc2OC(F)F)n[nH]1` [Compound 1, 2-(difluoromethoxy)-N-[[5-(2-methoxyphenyl)-1H-1,2,4-triazol-3-yl]methyl]benzamide], the “Highest TGI (%)” value is 36.61% with A549 tumors (75 mg/kg BID oral) and 55.43% with A549 tumors (150 mg/kg BID oral). Further, the “Maximum TGI (%), end of the study” value in the data set on A549 tumors (150 mg/kg dose) is given as 34.64%. Besides, the Body weight entry with A549 tumors (75 and 150 mg/kg) was “no drug effect”; in the data set with CTG-1520 PDX tumors (75 and 150 mg/kg BID, FIG. 10C), “No body weight loss”. In the data set with A549 tumors (all doses evaluated, FIG. 13B), the Average tumor growth entry was “decreased the average tumor growth at all doses evaluated”. Moreover, in the data set with CTG-1520 PDX tumors (75 mg/kg BID oral gavage, 17 days), the “Tumor volume relative to vehicle control” value is reported as “reduced tumor volume relative to the vehicle control, but to a lesser extent than the 150 mg/kg dose”. The Tumor growth inhibition entry in the data set with CTG-1520 PDX tumors (150 mg/kg BID oral gavage, 17 days) is “significant tumor growth inhibition”. Besides, the “Microtubule polymerization (absorbance at 340 nm, Vmax)” value at tubulin is “inhibits microtubule polymerization”.
